# Molecular target: Human immunodeficiency virus type 1 integrase (Human immunodeficiency virus 1, UniProt Q7ZJM1)
# Assay: Inhibitory activity of compound against HIV-1 integrase
# Chain of Human immunodeficiency virus type 1 integrase (Q7ZJM1 whole entry): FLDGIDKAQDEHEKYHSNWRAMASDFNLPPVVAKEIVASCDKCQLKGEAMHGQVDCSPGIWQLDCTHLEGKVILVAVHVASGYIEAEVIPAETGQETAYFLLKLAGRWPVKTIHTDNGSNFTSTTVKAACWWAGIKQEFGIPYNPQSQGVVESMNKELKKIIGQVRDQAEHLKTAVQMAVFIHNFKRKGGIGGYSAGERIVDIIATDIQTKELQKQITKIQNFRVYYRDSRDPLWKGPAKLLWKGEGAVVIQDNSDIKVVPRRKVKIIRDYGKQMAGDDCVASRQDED
row,Compound,IC50
1,H-QETAYFLLKLAGR-NH2,150 µM
2,H-QETAYFLLKLAGRWP-NH2,35 µM
3,H-GYIEAEVI-NH2,> 1000 µM
4,H-STTVKAASWWA-NH2,> 1000 µM

# The next compounds have a lower IC50 than those just listed; values first:
row,IC50,Compound
1,30 µM,CC[C@@H](C)[C@H](NC(=O)[C@H](CCCNC(=N)N)NC(=O)[C@H](CCC(=O)O)NC(=O)CNC(=O)[C@H](C)N)C(=O)N[C@H](C(=O)N[C@@H](CC(=O)O)C(=O)N[C@H](C(=O)N[C@H](C(=O)N[C@@H](C)C(N)=O)[C@@H](C)CC)[C@@H](C)CC)C(C)C
2,3 µM,H-HLKTAVQMAVFIHNFKR-NH2
3,2 µM,H-AGERIVDIIATDIQ-NH2
